One test deals with T1, hLPA3 (Homo sapiens, UniProt Q9UBY5).
T1 construct: expressed in transfected cells; host or cells: 293A cells
T1 sequence (Q9UBY5 1-353): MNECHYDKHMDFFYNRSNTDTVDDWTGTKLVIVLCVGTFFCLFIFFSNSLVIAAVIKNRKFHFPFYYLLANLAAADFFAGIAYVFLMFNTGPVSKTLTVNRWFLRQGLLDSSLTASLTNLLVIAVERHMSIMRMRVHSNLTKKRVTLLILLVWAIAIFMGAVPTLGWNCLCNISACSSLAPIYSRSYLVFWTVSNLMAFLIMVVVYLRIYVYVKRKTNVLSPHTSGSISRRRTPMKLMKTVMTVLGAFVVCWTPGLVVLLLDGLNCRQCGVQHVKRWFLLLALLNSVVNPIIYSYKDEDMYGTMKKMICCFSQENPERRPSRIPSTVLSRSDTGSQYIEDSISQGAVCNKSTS
Put plainly: TGFα-shedding assay, LPA3. The class given is cell-based. The note with it: 293A cells, AP-TGFα release; for EC50: 1 h; for Emax: read-out: Emax ± SEM hLPA3 (converted). Here is the method:
(§1) 293A cells expressing LPA receptors were stimulated with the indicated concentration of LPA, 2carbaLPA, and cPA analogues. Receptor-specific alkaline phosphatase-tagged transforming growth factor-α release was calculated by subtracting the responses in the empty vector-transfected cells from those in the receptor-expressing cells. Data are represented as standard error of the mean of three independent replicates.
(§2) 293A cells (Life Technologies, Tokyo, Japan) were cultured in DMEM (Nissui Pharmaceutical, Tokyo, Japan) supplemented with 10% foetal calf serum (Gibco, Waltham, MA, USA) in an incubator at 37 °C and 5% CO2. This assay was conducted according to a modified version of a method described previously. […] The cells were co-transfected with vectors-expressing human LPA1–6, alkaline phosphatase-tagged TGFα (AP-TGFα). As negative controls, cells transfected with an empty vector instead of the receptor-expressing vector were used. After 24 h, the cells were resuspended in Hank’s balanced salt solution (HBSS), seeded in 96-well plates, and stimulated with cPA analogues administered at tenfold concentration of the final concentration. The cPA analogues were diluted with HBSS, 0.01% protease and fatty acid-free BSA (SERVA Electrophoresis GmbH, Heidelberg, Germany). Cells for LPA4, LPA5, and LPA6 analysis were treated with Ki16425 (final concentration: 10 μM), 5 min before treatment with the cPA analogues. After incubation for 1 h at 37 °C, 80 µL of the supernatant was transferred to fresh 96-well plates. An equal volume of 1 mM p-NPP solution [120 mM Tris–HCl (pH 9.5), 40 mM NaCl, and 10 mM MgCl2] was added to both the supernatant and the cells. Alkaline phosphatase activity was calculated by measuring absorbance at 405 nm using the Cytation 3 plate reader (BioTek, Winooski, VT, USA).

The next test deals with T2, hLPA2 (Homo sapiens, UniProt Q9HBW0).
T2 construct: expressed in transfected cells; host or cells: 293A cells
T2 sequence (Q9HBW0 whole entry): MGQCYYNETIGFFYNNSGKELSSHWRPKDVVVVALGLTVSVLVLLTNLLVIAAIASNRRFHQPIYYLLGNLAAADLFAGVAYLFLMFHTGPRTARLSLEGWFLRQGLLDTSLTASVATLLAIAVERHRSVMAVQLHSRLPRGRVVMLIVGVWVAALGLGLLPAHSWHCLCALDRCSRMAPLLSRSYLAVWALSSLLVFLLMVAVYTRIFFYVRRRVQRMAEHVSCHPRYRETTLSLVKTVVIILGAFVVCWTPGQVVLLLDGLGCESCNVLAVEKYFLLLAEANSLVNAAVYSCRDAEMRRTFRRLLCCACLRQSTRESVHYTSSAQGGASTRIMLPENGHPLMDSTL
Put plainly: TGFα-shedding assay, LPA2. The following applies: 293A cells, AP-TGFα release; for EC50: 1 h; for Emax: read-out: Emax ± SEM hLPA2 (converted). In kind it is cell-based. The procedure:
as §1, §2

A further test addresses T3, human recombinant ATX (Homo sapiens, UniProt Q13822).
T3 construct: purchased Cayman Chemical
Put plainly: LC-QqQ assay of LPC cleavage by ATX (LPA 16:0 production). The following applies: for ATX inhibitory activity (LPA 16:0 production, LC-QqQ): 10 µM, LPC 16:0 300 µM, ATX 50 nM, 2 h, 37 °C; for Inhibition of the lysoPLD activity of ATX: stated in Conclusions, assay and concentration not given. In kind it is biochemical. Here is the method: Figure 5 Inhibition of lysophospholipase D activity of autotaxin (ATX) by cyclic phosphatidic acid (cPA) analogues. (a) Concentration–response curves for the inhibition of ATX activity as measured by the […] of the substrate lysophosphatidylcholine (LPC) using choline oxidase and peroxidase. LPC 16:0 (final concentration: 300 µM, above its critical micellar concentration [CMC]), human recombinant ATX (final concentration: 50 nM), and various concentrations of cPA analogues were used for incubation with 4-aminoantipyrine, TOOS (final concentration: 0.05% (w/v) each), choline oxidase and peroxidase (final concentration: 10 U/mL each) in the ATX assay buffer. The absorbance at a wavelength of 555 nm was measured at 0 and 2 h incubation at 37 °C. Inhibition was calculated as percentage (%) of reduction in absorbance compared with absorbance in the vehicle control (without cPA analogues) after subtraction of the value measured at time 0. Data are represented as mean ± standard deviation (n = 3–4 samples). (b) Inhibition of ATX activity measured by lysophosphatidic acid (LPA 16:0) production via liquid chromatography coupled to triple quadrupole mass spectrometry (LC-QqQ). The substrate LPC 16:0 (final concentration: 300 µM) was incubated with human recombinant ATX (final concentration: 50 nM) and cPA analogues (final concentration: 10 μM) for 2 h at 37 °C. The ATX product, LPA 16:0, was quantified by LC-QqQ. Inhibition was calculated as percentage (%) of reduction in LPA production compared with LPA production in the vehicle control (without cPA analogues). Data are represented as mean ± standard deviation (n = 5–6 samples). TEXT PRINTED IN THE PICTURE: (b) LPA: ATX Inhibition, %: ND
ATX (4 µL, final concentration: 50 nM) and cPA analogues (4 µL, final concentration: 10 µM) were added to a 200-µL siliconized microcentrifuge tube and mixed with 32 µL of LPC 16:0 (final concentration: 300 µM) in ATX assay buffer. After incubation at 37 °C for 2 h, 160 µL of acidic methanol was added to stop enzymatic reaction. Sample solutions were filtered, and the LPA 16:0 production was analysed using LC-QqQ as per methods described previously. Inhibition was calculated as a percentage (%) of reduction in LPA production compared to LPA production in the vehicle control (without cPA analogues).

Bounds are passed on as bounds.

As a reminder, the EC50 is the midpoint of the concentration-response curve. Read a low EC50 as greater potency. Broadly, the Emax is the size of the effect at its maximum, as opposed to the concentration needed. As to `CCCCCCCC/C=C\CCCCCCCC(=O)OCC(CO)CP(=O)(O)O` (centres unmarked) [2carbaLPA 18:1, 2-carba-lysophosphatidic acid], on hLPA3, the EC50 stood at 0.0116 µM and the maximum response (Emax) is 42.7%. In addition, at hLPA2, the EC50 is 0.256 µM and the Emax is 35.8%.

For `CCCCCCCC/C=C\CCCCCCCC(=O)OCC1COP(=O)(O)C1` (centres unmarked) [2ccPA 18:1, 2-carba-cyclic phosphatidic acid], on hLPA3, the half-maximal effective concentration (EC50) is 0.286 µM and the maximal effect (Emax) was 30.8%. The concentration for a half-maximal effect (EC50) at hLPA2 (bound) was > 3 µM.

With `CCCCCCCC/C=C\CCCCCCCC(=O)OC[C@@H](O)CCP(=O)(O)O` [3carba LPA 18:1, 3-carba-lysophosphatidic acid], at hLPA3, the 50% effective concentration (EC50) turned out to be 0.0056 µM and the Emax is 44.3%. Besides, on hLPA2, the response was half-maximal at 0.0283 µM (EC50) and the Emax is 30.7%. The “ATX inhibitory activity (LPA 16:0 production, LC-QqQ)” value (from here on “ATX inhibitory activity”) on human recombinant ATX is recorded as “significantly stronger than that of 3ccPA”.

For the compound `CCCCCCCC/C=C\CCCCCCCC(=O)OC[C@@H]1CCP(=O)(O)O1` [3ccPA 18:1, 3-carba-cyclic phosphatidic acid], at hLPA3, the maximal effect (Emax) was 37.4%. Besides, on hLPA2, the 50% effective concentration (EC50) came out at 2.6 µM and the Emax was 53.2%. Besides, on human recombinant ATX, the “ATX inhibitory activity” value is recorded as “weak” and the “Inhibition of the lysoPLD activity of ATX” value is on record as 30%.

As to `CCCCCCCC/C=C\CCCCCCCC(=O)OC[C@@H]1COP(=O)(O)O1` [cPA 18:1, 1-Oleoyl-cPA], at hLPA3, a half-maximal response (EC50) required 0.439 µM and the Emax is 16.8%. Also, at hLPA2, a half-maximal effect (EC50) was put at 1.07 µM and the Emax was 35.9%. In addition, at human recombinant ATX, the “ATX inhibitory activity” value is recorded as “poor ATX inhibitor” and the “Inhibition of the lysoPLD activity of ATX” value was 10%.

The record behind these values is paper PMC8405639, “2-Carba-lysophosphatidic acid is a novel β-lysophosphatidic acid analogue with high potential for lysophosphatidic acid receptor activation and autotaxin inhibition” (Scientific Reports, 2021).
